ChEMBL document CHEMBL6078656, “Pattern-Based Genome Mining Guides Discovery of the Antibiotic Indanopyrrole A from a Marine Streptomycete” (J Nat Prod, 2024)
≈ marks a conversion by molar mass, not a printed value.

Legend:
[1] = test system: Enterococcus faecium; test: Antibacterial activity against vancomycin-resistant Enterococcus faecium DAPS assessed as inhibition of bacterial growth incubated for 24 hrs by CLSI based broth microdilution method; format: functional
[2] = test system: Streptococcus; test: Antibacterial activity against Streptococcus M1T1 assessed as inhibition of bacterial growth incubated for 24 hrs by CLSI based broth microdilution method; format: functional
[3] = test system: Staphylococcus aureus; test: Antibacterial activity against Staphylococcus aureus TCH1516 assessed as inhibition of bacterial growth incubated for 24 hrs by CLSI based broth microdilution method; format: functional
[4] = test system: Escherichia coli; test: Antibacterial activity against Escherichia coli K1 RS218 assessed as inhibition of bacterial growth incubated for 24 hrs by CLSI based broth microdilution method; format: functional
[5] = test system: Haemophilus influenzae; test: Antibacterial activity against Haemophilus influenzae 1 assessed as inhibition of bacterial growth incubated for 24 hrs by CLSI based broth microdilution method; format: functional
[6] = test system: A549; test: Cytotoxicity against human A549 cells assessed as increase in LDH release at 16 microg/ml incubated for 24 hrs; format: toxicity, cell-based; details: a549, 24 h, dose 16 µg/ml
[7] = test system: Staphylococcus epidermidis; test: Antibacterial activity against methicillin-resistant Staphylococcus epidermidis assessed as inhibition of bacterial growth incubated for 24 hrs by CLSI based broth microdilution method; format: functional
[8] = test system: Acinetobacter baumannii; test: Antibacterial activity against Acinetobacter baumannii 5075 assessed as inhibition of bacterial growth incubated for 24 hrs by CLSI based broth microdilution method; format: functional
[9] = test system: Escherichia coli; test: Antibacterial activity against Escherichia coli LptD4213 assessed as inhibition of bacterial growth incubated for 18 hrs by broth microdilution method; format: functional
[10] = test system: Haemophilus influenzae; test: Antibacterial activity against Haemophilus influenzae 2 assessed as inhibition of bacterial growth incubated for 24 hrs by CLSI based broth microdilution method; format: functional

Compound | MIC [1] [µg/mL] | MIC [2] [µg/mL] | MIC [3] [µg/mL] | MIC [4] [µg/mL] | MIC [5] [µg/mL] | Activity [6] | MIC [7] [µg/mL] | MIC [8] [µg/mL] | MIC [9] [µg/mL] | MIC [10] [µg/mL]
C/C(=C\[C@H]1C=C[C@H]2CC[C@@H](C)[C@@H]2[C@H]1C(=O)c1cc(Cl)c(Cl)[nH]1)C[C@@H](C)C(=O)O | > 16 | > 16 | > 16 | > 16 | – | – | – | – | – | –
C/C(=C\[C@H]1C=C[C@H]2CC[C@@H](C)[C@@H]2[C@H]1C(=O)c1[nH]c(Cl)c(Cl)c1Cl)C[C@@H](C)C(=O)O | 4 (≈ 8.72 µM) | 4 (≈ 8.72 µM) | 2 (≈ 4.36 µM) | > 32 | 1 (≈ 2.18 µM) | Toxic | 4 (≈ 8.72 µM) | > 32 | 4 (≈ 8.72 µM) | 2 (≈ 4.36 µM)
